{
  "source": "patent US11415513B2",
  "about": "“Method for determining the degree of sensitivity of a strain of fungus to an antifungal agent” (UNIVERSITE GRENOBLE ALPES, priority 2015, dated 2022)",
  "key": {"[1]": {"test_system": "strain TOP of C. albicans", "assay": "Etest method (MIC)", "format": "cell-based, Candida albicans", "conditions": "RPMI medium plates, 24 h at 35° C.", "protocol": "The Etest® method is a commercial test for determining the sensitivity of a strain, most frequently used routinely in clinical mycology laboratories.\nThe Etest® tests were performed according to the manufacturer's instructions. After distributing a standardised Mac Farland 0.5 inoculum (equivalent of […]) over plates of RPMI medium, said plates were incubated for 24 h at 35° C., with the exception of C. glabrata in which case the incubation was extended to 48 h so as to be able to determine the minimum inhibitory concentration (MIC).\nThe results of the MICs obtained were interpreted in accordance with the tables of the CLSI (Clinical and Laboratory Standards Institute) and/or of EUCAST (European Committee on Antimicrobial Susceptibility Testing) (Arendrup M C, Cuenca-Estrella M, Lass-Flörl C, Hope W W (2014) Breakpoints for antifungal agents: an update from EUCAST focussing on echinocandins against Candida spp and triazoles against Aspergillus spp. Drug Resist Updat 16(6):81-95. doi:10.1016/j.drup.2014.01.001) (cf. Table 2 taken from Maubon D, Garnaud C, Calandra T, et al. (2014) Resistance of Candida spp. to antifungal drugs in the ICU: where are we now? Intensive Care Med. doi: 10.1007/s00134-014-3404-7) which list the clinical thresholds (CBPs) for the most common species of yeast of the genus Candida as a function of different antifungal agents, or according to the table of epidemiological thresholds (ECVs)."}, "[2]": {"test_system": "strain TOP of C. albicans", "assay": "Sensitivity test by HCA microscopy (chitin level, Calcofluor White)", "format": "cell-based, Candida albicans", "conditions": "6.5 h at 30° C., SC medium", "protocol": "(§1) The strains of Candida were incubated beforehand at 30° C. overnight in a yeast extract medium—peptone dextrose (YPD) (1% bacto peptone, 0.5% yeast extract, 2% glucose, 1.5% agar).\n(§2) Yeast colonies were then removed from YPD medium plates and suspended in a 0.9% NaCl saline solution, in which the cell concentration was estimated by optical microscopy using Kova counting slides. […]\n(§3) A step of acquiring images by automated fluorescence microscopy (ScanR screening station, Olympus), using a 40× lens and a CFW filter, made it possible to obtain 30 images per well so as to capture enough cells to provide statistically significant data. These images were analysed by software (ScanR analysis software, Olympus). Firstly, the background noise was processed so as to improve the contrast between the fluorescence of the yeasts and background noise. […] Segmentation of the fluorescent elements present in each of the acquired images was then performed using an algorithm predefined in the software, making it possible to determine the limit of each element on the basis of the fluorescence intensity of said element. […]\n(§4) Each element then corresponding to a yeast, it was thus possible, on the basis of these elements predefined beforehand, to define the fluorescence intensity for each of the yeasts, this intensity being directly correlated with the chitin content of their wall. […]"}, "[3]": {"test_system": "strain 13/5 of C. tropicalis", "assay": "Sensitivity test by HCA microscopy (chitin level, Calcofluor White)", "format": "cell-based, Candida tropicalis", "conditions": "6.5 h at 30° C., SC medium", "protocol": "as §1, §2, §3, §4"}, "[4]": {"conditions": "vs cells in the absence of antifungal agent, concentration gradient up to 1 μg/ml"}},
  "note": "Starred links: 1 amine or outer side, 2 acyl side, 3 side chain; linkers in the order of their positions; H or OH if unused. Positions of bridges follow the written chain, without caps; N, C: chain ends. Non-standard residues stand in square brackets, D forms with d. Residues, ends and D or L forms follow the SMILES beside them. *: point of attachment. hTyr(3S-OH,4S-OH,3'-OSO3H) = N[C@H](C(=O)O)[C@H](O)[C@@H](O)c1ccc(O)c(OS(=O)(=O)O)c1; Orn(4R-OH,5R-OH) = O=C([C@H](C[C@@H](O)[C@@H](O)N[*:3])N[*:1])[*:2]; Pro(3S-OH,4S-Me) = C[C@H]1CN[C@H](C(=O)O)[C@H]1O; X1 = CCCCCOc1ccc(-c2cc(-c3ccc(C(=O)*)cc3)no2)cc1; Gln(3R-OH) = NC(=O)C[C@@H](O)[C@H](N)C(=O)O; Hyp = O=C(O)[C@@H]1C[C@@H](O)CN1",
  "data": [
    {"smiles": "CCCCCOc1ccc(-c2cc(-c3ccc(C(=O)N[C@H]4C[C@@H](O)[C@@H](O)NC(=O)[C@@H]5[C@@H](O)[C@@H](C)CN5C(=O)[C@H]([C@H](O)CC(N)=O)NC(=O)[C@H]([C@H](O)[C@@H](O)c5ccc(O)c(OS(=O)(=O)O)c5)NC(=O)[C@@H]5C[C@@H](O)CN5C(=O)[C@H]([C@@H](C)O)NC4=O)cc3)no2)cc1", "note": "[micafungin] (X1-[Orn(4R-OH,5R-OH)]T[Hyp][hTyr(3S-OH,4S-OH,3'-OSO3H)][Gln(3R-OH)][Pro(3S-OH,4S-Me)]; lactam 1-C)", "values": [
      {"measurement": "MIC", "setting": "[1]; Candida albicans", "value": 1, "unit": "µg/mL"},
      {"measurement": "phenotype by Etest MIC, interpretation by the EUCAST and CLSI tables", "setting": "[1]", "value": "resistant"},
      {"measurement": "phenotype of the strain with respect to the antifungal agent (HCA)", "setting": "[2]", "value": "resistant (an increase in the chitin level having a value less than 10% or a decrease in the chitin level of less than 20% or an unchanged chitin level)"},
      {"measurement": "increase in the chitin level in the wall of the cells", "setting": "[2]; [4]", "value": "less than 10%"},
      {"measurement": "phenotype of the strain with respect to the antifungal agent (HCA)", "setting": "[3]", "value": "resistant (an increase in the chitin level having a value less than 10% or a decrease in the chitin level of less than 20% or an unchanged chitin level)"},
      {"measurement": "increase in the chitin level in the wall of the cells", "setting": "[3]; [4]", "value": "less than 10%"}
    ]}
  ]
}
